Numbered stars: 1 amine (or outer) side, 2 acyl side, 3 side chain; on linkers, the order of the positions; unused ones are H or OH. Bridge positions count the residues as written; N and C are the ends. Square brackets hold non-standard residues; d marks the D form. Peptide text beside a SMILES is read from it. * marks the point of attachment. Trp(βS-Me,7-OMe) = COc1cccc2c([C@H](C)[C@H](N)C(=O)O)c[nH]c12; Phe(4-SO2NH2) = N[C@@H](Cc1ccc(S(N)(=O)=O)cc1)C(=O)O; Acbc(cis-1,3) = O=C([C@H]1C[C@@H](N[*:1])C1)[*:2]; Trp(7-CN) = N#Cc1cccc2c(C[C@H](N)C(=O)O)c[nH]c12; Trp(7-Cl) = N[C@@H](Cc1c[nH]c2c(Cl)cccc12)C(=O)O; Biotin = O=C1N[C@H]2[C@H](CS[C@H]2CCCCC(=O)*)N1; Phe(4-CONH2) = NC(=O)c1ccc(C[C@H](N)C(=O)O)cc1; Phe(4-COOH) = N[C@@H](Cc1ccc(C(=O)O)cc1)C(=O)O; Trp(7-aza) = N[C@@H](Cc1c[nH]c2ncccc12)C(=O)O; Ala(thiazol-5-yl) = N[C@@H](Cc1cncs1)C(=O)O; X41 = O=C([C@@H]1C[C@H](O)CCN1[*:1])[*:2]; Pip(5R-OH) = O=C(O)[C@@H]1CC[C@@H](O)CN1; X1 = O=C([C@@H]1CC[C@H](N[*:1])C1)[*:2]; Pro(4R-NH2) = N[C@H]1CN[C@H](C(=O)O)C1; Pip(4-aza) = O=C(O)[C@@H]1CNCCN1; 4Pal = N[C@@H](Cc1ccncc1)C(=O)O; NMeE = CN[C@@H](CCC(=O)O)C(=O)O; dNMeE = CN[C@H](CCC(=O)O)C(=O)O; αMeS = C[C@](N)(CO)C(=O)O; Nle = CCCC[C@H](N)C(=O)O; AEA = NCCOCC(=O)O; Sar = CNCC(=O)O

In the assay the target is T1, TNFα-induced NF-κB signal transduction pathway (TNFR1 signaling) in THP-1 cells (Homo sapiens, UniProt P19438).
T1 sequence (P19438 30-455): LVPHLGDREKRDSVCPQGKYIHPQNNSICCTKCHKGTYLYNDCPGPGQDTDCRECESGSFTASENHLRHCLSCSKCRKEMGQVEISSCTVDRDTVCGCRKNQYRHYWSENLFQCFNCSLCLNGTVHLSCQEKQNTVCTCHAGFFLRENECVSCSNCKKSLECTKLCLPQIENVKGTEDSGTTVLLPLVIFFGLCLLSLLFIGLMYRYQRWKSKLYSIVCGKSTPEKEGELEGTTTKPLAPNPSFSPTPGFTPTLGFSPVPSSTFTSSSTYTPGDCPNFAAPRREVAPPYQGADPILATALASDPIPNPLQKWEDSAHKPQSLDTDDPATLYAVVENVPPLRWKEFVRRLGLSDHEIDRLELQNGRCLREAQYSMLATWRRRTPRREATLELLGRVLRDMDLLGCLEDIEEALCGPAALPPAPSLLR
Briefly: THP-1 Lucia NF-κB reporter cell assay, inhibition of TNFα-induced NF-κB signaling. It is filed as cell-based. As to conditions: THP-1 NF-κB Lucia reporter cells, 10 ng/mL TNFα, 16-18 h, secreted luciferase; read-out: THP-1 IC50. The protocol:
C. Procedure for THP-1 Lucia NF-κB cells
The inhibition of TNFα-induced NF-κB signal transduction pathways was evaluated in THP-1 cells. THP-1 cells harboring NF-κB-inducible Lucia™ reporter gene (InvivoGen, cat. #thp1-nfkb) designed for monitoring NF-κB signal transduction pathway was employed to assess the inhibitory effect macrocyclic peptides on TNFR1 signaling. The cells were cultured in media containing RPMI 1640, 2 mM L-glutamine, 25 mM HEPES, 10% heat-inactivated fetal bovine serum with appropriate selection antibiotics. Assays were performed in media that was devoid of selection antibiotics. For profiling, 125 nL of peptides in DMSO (10 mM) were dispensed into Falcon® 384-well Optilux white/clear flat bottom TC-treated microtest microplate (Corning, cat. #353963) using Echo® 555. […] A suspension of 1 million cells/mL was dispensed at 20 μL/well in a 384-well plate to a density of 20,000 cells/well and pre-incubated with peptides at 37° C. for 1 h. Subsequently, 5 μL of TNF containing media (recombinant human TNFα; R&D Systems USA, cat. #210-TA-005/CF) or TNF-free media (for controls) was added to the wells. The final concentration of TNFα in the assay in 10 ng/mL. After o.n. incubation at 37° C. (16-18 h), 5 μL of supernatant was aspirated and transferred to a 384-well microplate (PerkinElmer, cat. #6007680) for measurement of secreted luciferase activity with 25 μL of QUANTI-Luc™ luminescence assay reagent (InvivoGen, cat. #rep-qlc1) in each well. The luminescence was measured in EnVision® Multimode Plate Reader (PerkinElmer). Dose response curves were analyzed using a 4-parameter logistic model to calculate IC50 values, reported in Table 2, using TIBCO® Spotfire® software employing appropriate Minimum and Maximum controls.
As a reminder, the IC50 is the concentration that inhibits the measured activity by half. Turning to `CCCC[C@@H]1NC(=O)CSC[C@@H](C(N)=O)NC(=O)[C@H]([C@@H](C)c2c[nH]c3c(OC)cccc23)NC(=O)CN(C)C(=O)[C@H](Cc2ccc(O)cc2)NC(=O)[C@H](Cc2ccc(C(=O)O)cc2)NC(=O)[C@](C)(CO)NC(=O)[C@H](Cc2c[nH]c3c(Cl)cccc23)NC(=O)[C@H](Cc2ccncc2)NC(=O)[C@H](CC(N)=O)NC(=O)[C@H](CCC(=O)O)N(C)C(=O)[C@H](Cc2c[nH]c3ncccc23)NC(=O)[C@@H]2C[C@@H](N)CN2C(=O)[C@H](Cc2ccncc2)NC1=O` [SEQ ID NO. 125] ({CH2CO}-[Nle][4Pal][Pro(4R-NH2)][Trp(7-aza)][NMeE]N[4Pal][Trp(7-Cl)][αMeS][Phe(4-COOH)]Y[Sar][Trp(βS-Me,7-OMe)]C-NH2; thioether N-14), the IC50 was 4.1 nM. The value for `CCCC[C@@H]1NC(=O)CSC[C@@H](C(N)=O)NC(=O)[C@H]([C@@H](C)c2c[nH]c3c(OC)cccc23)NC(=O)CN(C)C(=O)[C@H](Cc2ccc(O)cc2)NC(=O)[C@H](Cc2ccc(C(=O)O)cc2)NC(=O)[C@](C)(CO)NC(=O)[C@H](Cc2c[nH]c3c(Cl)cccc23)NC(=O)[C@H](Cc2ccncc2)NC(=O)[C@H](CC(N)=O)NC(=O)[C@H](CCC(=O)O)N(C)C(=O)[C@H](Cc2c[nH]c3ccccc23)NC(=O)[C@@H]2C[C@H](O)CCN2C(=O)[C@H](Cc2ccncc2)NC1=O` [SEQ ID NO. 71] ({CH2CO}-[Nle][4Pal][X41]W[NMeE]N[4Pal][Trp(7-Cl)][αMeS][Phe(4-COOH)]Y[Sar][Trp(βS-Me,7-OMe)]C-NH2; thioether N-14) was 2.8 nM; that for `CCCC[C@@H]1NC(=O)[C@@H]2CC[C@@H](C2)NC(=O)[C@H]([C@@H](C)c2c[nH]c3c(OC)cccc23)NC(=O)CN(C)C(=O)[C@H](Cc2ccc(O)cc2)NC(=O)[C@H](Cc2ccc(C(=O)O)cc2)NC(=O)[C@](C)(CO)NC(=O)[C@H](Cc2c[nH]c3c(Cl)cccc23)NC(=O)[C@H](Cc2cncs2)NC(=O)[C@H](CC(N)=O)NC(=O)[C@H](CCC(=O)O)N(C)C(=O)[C@H](Cc2c[nH]c3ccccc23)NC(=O)[C@@H]2CNCCN2C(=O)[C@H](Cc2ccncc2)NC1=O` [SEQ ID NO. 138] (cyclo([4Pal][Pip(4-aza)]W[NMeE]N[Ala(thiazol-5-yl)][Trp(7-Cl)][αMeS][Phe(4-COOH)]Y[Sar][Trp(βS-Me,7-OMe)][X1][Nle])) was 2 nM; that for `CN1CC(=O)N[C@@H](CC(N)=O)C(=O)N[C@@H](Cc2ccc(O)cc2)C(=O)N[C@@H](Cc2c[nH]c3ccccc23)C(=O)N[C@@H](CO)C(=O)N[C@@H](Cc2ccc(O)cc2)C(=O)N[C@@H](Cc2ccc(O)cc2)C(=O)N(C)CC(=O)N[C@@H](Cc2c[nH]c3ccccc23)C(=O)N[C@H](C(=O)NCC(=O)NCCOCC(=O)N[C@@H](CCCCNC(=O)CCCC[C@@H]2SC[C@@H]3NC(=O)N[C@@H]32)C(N)=O)CSCC(=O)N[C@@H](Cc2ccccc2)C(=O)N[C@@H](Cc2ccc(O)cc2)C(=O)N[C@@H](CO)C(=O)N[C@@H](Cc2c[nH]c3ccccc23)C1=O` [SEQ ID NO. 1] ({CH2CO}-FYSW[Sar]NYWSYY[Sar]WCG[AEA]K(Biotin)-NH2; thioether N-14) was 227 nM. The value for `CCCC[C@@H]1NC(=O)[C@@H]2CC[C@@H](C2)NC(=O)[C@H]([C@@H](C)c2c[nH]c3c(OC)cccc23)NC(=O)CN(C)C(=O)[C@H](Cc2ccc(C(=O)O)cc2)NC(=O)[C@H](Cc2ccc(C(N)=O)cc2)NC(=O)[C@](C)(CO)NC(=O)[C@H](Cc2c[nH]c3c(C#N)cccc23)NC(=O)[C@H](Cc2ccc(S(N)(=O)=O)cc2)NC(=O)[C@H](CC(N)=O)NC(=O)[C@@H](CCC(=O)O)N(C)C(=O)[C@H](Cc2c[nH]c3ncccc23)NC(=O)[C@@H]2CC[C@@H](O)CN2C(=O)[C@H](Cc2ccncc2)NC1=O` [SEQ ID NO. 133] (cyclo([4Pal][Pip(5R-OH)][Trp(7-aza)][dNMeE]N[Phe(4-SO2NH2)][Trp(7-CN)][αMeS][Phe(4-CONH2)][Phe(4-COOH)][Sar][Trp(βS-Me,7-OMe)][X1][Nle])) was 1.4 nM; that for `CCCC[C@@H]1NC(=O)[C@H]2C[C@H](C2)NC(=O)[C@H]([C@@H](C)c2c[nH]c3c(OC)cccc23)NC(=O)CN(C)C(=O)[C@H](Cc2ccc(O)cc2)NC(=O)[C@H](Cc2ccc(C(=O)O)cc2)NC(=O)[C@](C)(CO)NC(=O)[C@H](Cc2c[nH]c3c(Cl)cccc23)NC(=O)[C@H](Cc2ccncc2)NC(=O)[C@H](CC(N)=O)NC(=O)[C@H](CCC(=O)O)N(C)C(=O)[C@H](Cc2c[nH]c3ccccc23)NC(=O)[C@@H]2CNCCN2C(=O)[C@H](Cc2ccncc2)NC1=O` [SEQ ID NO. 69] (cyclo([4Pal][Trp(7-Cl)][αMeS][Phe(4-COOH)]Y[Sar][Trp(βS-Me,7-OMe)][Acbc(cis-1,3)][Nle][4Pal][Pip(4-aza)]W[NMeE]N)) was 1.6 nM.

The values are drawn from patent US20240287138A1, “CYCLIC PEPTIDES FOR INHIBITING TNF RECEPTOR 1 ACTIVITY” (Merck Sharp & Dohme LLC, priority 2023, published 2024).
